Each molecule was assayed against T1, recombinant human NPY Y2 receptors (Homo sapiens, UniProt P49146) (assay: Scintillation proximity [35S]GTPγS binding assay (inhibition of 0.5 nM NPY-stimulated [35S]GTPγS binding)). Conditions: 10 μM compound, CHO-C4 membranes.
T1 construct: expressed in transfected cells; host or cells: CHO-C4 cells (membrane preparation)
T1 sequence (P49146 1-381): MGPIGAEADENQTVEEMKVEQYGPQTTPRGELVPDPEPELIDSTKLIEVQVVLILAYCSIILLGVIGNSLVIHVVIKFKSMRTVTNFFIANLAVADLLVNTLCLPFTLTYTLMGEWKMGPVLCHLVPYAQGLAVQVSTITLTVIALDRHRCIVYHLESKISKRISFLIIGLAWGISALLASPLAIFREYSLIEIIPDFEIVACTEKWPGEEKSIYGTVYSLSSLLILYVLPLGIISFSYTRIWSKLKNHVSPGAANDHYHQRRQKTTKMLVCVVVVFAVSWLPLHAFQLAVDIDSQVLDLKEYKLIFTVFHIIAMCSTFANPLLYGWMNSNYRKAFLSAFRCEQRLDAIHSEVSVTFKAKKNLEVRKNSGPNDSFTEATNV
Format: biochemical
Procedure: Preparation of Membranes: CHO—C4 cells expressing recombinant human NPY Y2 receptors were used to prepare membranes for the GTPγS assay. Cells were grown to 80-95% confluency on 15-cm (225 cm^2) tissue culture plates. After aspiration of the culture medium, cells were washed twice with 18 ml ice-cold phosphate-buffered saline (PBS), scraped off and suspended in 3 ml ice-cold PBS in pre-cooled centrifuge tubes. The dishes were rinsed with 2 ml ice-cold PBS per dish and the washings were combined with the PBS cell suspension from above. Cells pooled from 5-7 dishes were centrifuged for 5 min at 10,000 rpm (12,000 g) in a Sorvall RC5B centrifuge using an SS34 rotor at 4° C. The cell pellet was resuspended in 5 ml ice-cold buffer (20 mM HEPES, 10 mM EDTA; pH 7.4) by vortexing (2-5 sec), homogenized using a Polytron (step 4 for 20-30 sec), and ice-cold buffer added to 25 ml. The suspension was centrifuged again for 20 min at 18,000 rpm (39,000 g) at 4° C. and the pellet resuspended in 5 ml ice-cold buffer (20 mM HEPES, 0.1 mM EDTA; pH 7.4) by vortexing (2-5 sec), homogenized with a Polytron (step 4 for 10 sec), and ice-cold buffer added to 25 ml. The suspension was centrifuged a third time for 20 min at 18,000 rpm (39,000 g) at 4° C. The pellet was resuspend in 1 ml ice-cold buffer (20 mM Hepes, 0.1 mM EDTA; pH 7.4) by vortexing (5-8 sec). Two to five resuspended pellets were combined and homogenized using a Polytron (step 4 for 15-25 sec). A small aliquot (20-50 μl) was removed for protein determination by the Coomassie Plus Protein Assay Reagent (Pierce) using BSA as standard. The membrane suspension was aliquoted in pre-cooled (on dry ice) Eppendorf tubes (0.25-1 ml/tube affording approximately 0.5-2 mg of membrane protein/tube). The pellets were frozen and stored at −80° C.
Scintillation proximity [^35S]GTPγS binding assay: Frozen membranes from CHO—C4 cells expressing recombinant human NPY Y2 receptors (2 mg for four 96-well plates) were thawed on ice. Thawed membranes were pipetted into 10 ml of assay buffer (20 mM. HEPES, 10 mM MgCl2, 100 mM NaCl, pH 7.4) and homogenized briefly using a Polytron. The final assay mixture was prepared in 96-well microtiter plates (Isoplate Wallac, Perkin Elmer). The composition of the assay mixtures in a final volume of 250 μl per well was as follows: 20 mM HEPES, 10 mM MgCl2, 100 mM NaCl, pH 7.4, 30 μM GDP, 1 mg/ml BSA (added fresh), 5 μg membrane protein, 1.5 mg Wheatgerm agglutinin SPA beads (Amersham), 0.45 nM [^35S]GTPγS (Amersham, SJ1308, 1000 Ci/mmol, stabilized solution), and the test compounds (agonists and/or antagonists) at the appropriate concentrations. The samples were incubated at room temperature for 90 min by shaking, after which the SPA beads were sedimented by centrifugation in an Eppendorf 5804 centrifuge at 2700 rpm for 10 min at room temperature. After 60 min the plates were counted in a TopCount (Canberra). Basal [^35S]GTPγS binding was measured in the absence of agonist (NPY). Non-specific binding was measured in the presence of excess (10 μM) unlabelled GTPγS (Sigma). Nonspecific binding never exceeded 10% of basal binding and was thus not subtracted from the experimental data. Antagonists were tested for the inhibition of 0.5 nM NPY-stimulated [^35S]GTPγS binding. Antagonist inhibition curves were analyzed by non-linear regression using GraphPad Prism software (Version 4.0, GraphPad Software Inc., CA, USA).
Antagonistic activity of compounds of the present invention was examined by the Scintillation proximity [35S]GTPγS binding assay as described above (inhibition of 0.5 nM NPY-stimulated [^35S]GTPγS binding). The table below represents percentages of inhibition at a concentration of 10 μM.

| Structure (SMILES) | [%] inhibiton at 10 μM |
| --- | --- |
| COc1ccc(CC(=O)Nc2ccc(C(=O)CN3C(=O)NC(c4ccccc4)(c4ccc(C)cc4)C3=O)cc2)c(OC)c1 (racemic) [Example 41, (±)-2-2,4-Dimethoxy-phenyl)-N-{4-[2-(2,5-dioxo-4-phenyl-4-p-tolyl-imidazolidin-1-yl)-acetyl]-phenyl}-acetamide] | 60% |
| Cc1noc(C)c1CC(=O)Nc1ccc(C(=O)CN2C(=O)NC(c3ccccc3)(c3ccccc3)C2=O)cc1 [Example 27, 2-(3,6-Dimethyl-isoxazol-4-yl)-N-{4-[2-(2,5-dioxo-4,4-diphenyl-imidazolidin-1-yl)-acetyl]-phenyl}-acetamide] | 96% |
| Cc1noc(C)c1NC(=O)Nc1ccc(C(=O)CN2C(=O)NC(c3ccccc3)(c3ccccc3)C2=O)c(F)c1 [Example 28, 1-(3,5-Dimethyl-isoxazolyl-4-yl)-3-{4-[2-(2,5-dioxo-4,4-diphenyl-imidazolidin-1-yl)-acetyl]-3-fluoro-phenyl}-urea] | 98% |

The remaining lines, values ahead:

| [%] inhibiton at 10 μM | Structure (SMILES) |
| --- | --- |
| 90% | CCCC1(c2ccccc2)NC(=O)N(CC(=O)c2ccc(NC(=O)C(CC)CC)cc2)C1=O (single isomer, unassigned; (+)) [Example 32] |
| 99% | CCCC1(c2ccccc2)NC(=O)N(CC(=O)c2ccc(NC(=O)Cc3c(C)noc3C)cc2)C1=O (single isomer, unassigned; (-)) [Example 29] |
| 97% | CCCC1(c2ccccc2)NC(=O)N(CC(=O)c2ccc(NC(=O)C(CC)CC)cc2)C1=O (single isomer, unassigned; (-)) [Example 31] |

Same assay, conditions: 10 μM compound, CHO-C4 membranes, read-out: [%] inhibiton at 10 μM

| Structure (SMILES) | inhibition at 10 µM |
| --- | --- |
| CCCC1(c2ccccc2)NC(=O)N(CC(=O)c2ccc(NC(=O)Nc3c(C)noc3C)cc2F)C1=O (racemic) [Example 1, (±)-1-(3,5-Dimethyl-isoxazol-4-yl)-3-{4-[2-(2,5-dioxo-4-phenyl-4-propyl-imidazolidin-1-yl)-acetyl]-3-fluoro-phenyl}-urea] | 105% |
| CCC1(c2ccccc2)NC(=O)N(CC(=O)c2ccc(NC(=O)Nc3c(C)noc3C)cc2)C1=O (racemic) [Example 2, (±)-1-(3,5-Dimethyl-isoxazol-4-yl)-3-{4-[2-(4-ethyl-2,5-dioxo-4-phenyl-imidazolidin-1-yl)-acetyl]-phenyl}-urea] | 98% |
| CCCC1(c2ccccc2)NC(=O)N(CC(=O)c2ccc(NC(=O)CC(C)C)cc2F)C1=O (racemic) [Example 5, (±)-N-{4-[2-(2,5-Dioxo-4-phenyl-4-propyl-imidazolidin-1-yl)-acetyl]-3-fluoro-phenyl}-3-methyl-butyramide] | 63% |
| CCC1(c2ccccc2)NC(=O)N(CC(=O)c2ccc(NC(=O)CC(C)C)cc2F)C1=O (racemic) [Example 13, (±)-N-{4-[2-(4-Ethyl-2,5-dioxo-4-phenyl-imidazolidin-1-yl)-acetyl]-3-fluoro-phenyl}-3-methyl-butyramide] | 78% |
| Cc1ccc(C2(c3ccccc3)NC(=O)N(CC(O)c3ccc(NC(=O)CC(C)C)cc3)C2=O)cc1 (racemic) [Example 14, (±)-N-{4-[2-(2,5-Dioxo-4-phenyl-4-p-tolyl-imidazolidin-1-yl)-1-hydroxy-ethyl]-phenyl}-3-methyl-butyramide] | 58% |
| CCC1(c2ccccc2)NC(=O)N(Cc2ccc(NC(=O)Nc3c(C)noc3C)cc2)C1=O (racemic) [Example 19, (±)-1-(3,5-Dimethyl-isoxazol-4-yl)-3-[4-(4-ethyl-2,5-dioxo-4-phenyl-imidazolidin-1-ylmethyl)-phenyl]-urea] | 32% |
| Cc1ccc(C2(c3ccccc3)NC(=O)N(CC(=O)c3ccc(NC(=O)Nc4ccccc4F)cc3)C2=O)cc1 (racemic) [Example 39, (±)-1-{4-[2-(2,5-Dioxo-4-phenyl-4-p-tolyl-imidazolidin-1-yl)-acetyl]-phenyl}-3-(2-fluoro-phenyl)-urea] | 44% |
| COc1ccccc1CC(=O)Nc1ccc(C(=O)CN2C(=O)NC(c3ccccc3)(c3ccc(C)cc3)C2=O)cc1 (racemic) [Example 40, (±)-N-{4-[2-(2,5-Dioxo-4-phenyl-4-p-tolyl-imidazolidin-1-yl)-acetyl]-phenyl}-2-(2-methoxy-phenyl)-acetamide] | 70% |
| Cc1ccc(C2(c3ccccc3)NC(=O)N(CC(=O)c3ccc(NC(=O)Cc4c(C)noc4C)cc3)C2=O)cc1 (racemic) [Example 42, (±)-2-(3,5-Dimethyl-isoxazol-4-yl)-N-{4-[2-(2,5-dioxo-4-phenyl-4-p-tolyl-imidazolidin-1-yl)-acetyl]-phenyl}-acetamide] | 99% |
| CC(C)CC(=O)Nc1ccc(C(=O)CN2C(=O)NC(c3ccccc3)(c3ccccc3)C2=O)c(F)c1 [Example 9, N-{4-[2-(2,5-Dioxo-4,4-diphenyl-imidazolidin-1-yl)-acetyl]-3-fluoro-phenyl}-3-methyl-butyramide] | 83% |
| CCC(=O)Nc1ccc(C(=O)CN2C(=O)NC(c3ccc(F)cc3)(c3ccc(F)cc3)C2=O)cc1 [Example 12, N-(4-{2-[4,4-Bis-(4-fluoro-phenyl)-2,5-dioxo-imidazolidin-1-yl]-acetyl}-phenyl)-propionamide] | 42% |
| CCC(CC)C(=O)Nc1ccc(C(=O)CN2C(=O)NC(c3ccccc3)(c3ccccc3)C2=O)c(F)c1 [Example 34, N-{4-[2-(2,5-Dioxo-4,4-diphenyl-imidazolidin-1-yl)-acetyl]-3-fluoro-phenyl}-2-ethyl-butyramide] | 90% |

Next, values leading:

| inhibition at 10 µM | Structure (SMILES) |
| --- | --- |
| 97% | CCCC1(c2ccccc2)NC(=O)N(CC(=O)c2ccc(NC(=O)Cc3c(C)noc3C)cc2)C1=O (racemic) [Example 21, (±)-2-(3,5-Dimethyl-isoxazol-4-yl)-N-{4-[2-(2,5-dioxo-4-phenyl-4-propyl-imidazolidin-1-yl)-acetyl]-phenyl}-acetamide] |
| 96% | CCCC1(c2ccccc2)NC(=O)N(CC(=O)c2ccc(NC(=O)C(CC)CC)cc2)C1=O (racemic) [Example 24, (±)-N-{4-[2-(2,5-Dioxo-4-phenyl-4-propyl-imidazolidin-1-yl)-acetyl]-phenyl}-2-ethyl-butyramide] |
| 56% | CCCC1(c2ccccc2)NC(=O)N(CC(=O)c2ccc(NC(=O)Nc3ccccc3F)cc2)C1=O (racemic) [Example 44, (±)-1-{4-[2-(2,5-Dioxo-4-phenyl-4-propyl-imidazolidin-1-yl)-acetyl]-phenyl}-3-(2-fluoro-phenyl)-urea] |
| 83% | CCCC1(c2ccccc2)NC(=O)N(CC(=O)c2ccc(NC(=O)C3CCOC3)cc2)C1=O (centres unmarked) [Example 22, Tetrahydro-furan-3-carboxylic acid {4-[2-(2,5-dioxo-4-phenyl-4-propyl-imidazolidin-1-yl)-acetyl]-phenyl}-amide] |
| 36% | CCCC1(c2ccccc2)NC(=O)N(CC(=O)c2ccc(NC(=O)C3CCCN3)cc2)C1=O (centres unmarked) [Example 23, Pyrrolidine-2-carboxylic acid {4-[2-(2,5-dioxo-4-phenyl-4-propyl-imidazolidin-1-yl)-acetyl]-phenyl}-amide] |
